Source: PubChem BioAssay AID1259407 (Chemical Carcinogenesis Research Information System (CCRIS), 2018)
Calls of active or inactive are those of the source. How the calls were made is not given here.

Test system: CCRIS mutagenicity, Ames/micronucleus/aberration tests
Experiment: CCRIS mutagenicity studies
[1] = Test System: AMES SALMONELLA TYPHIMURIUM, Strain/Indicator: TA98, Metabolic Activation: NONE, Method: PREINCUBATION
[2] = Test System: AMES SALMONELLA TYPHIMURIUM, Strain/Indicator: TA98, Metabolic Activation: NONE, Method: STANDARD PLATE
[3] = Test System: AMES SALMONELLA TYPHIMURIUM, Strain/Indicator: TA98, Metabolic Activation: RAT, LIVER, S-9, AROCLOR 1254, Method: STANDARD PLATE
[4] = Test System: AMES SALMONELLA TYPHIMURIUM, Strain/Indicator: TA100, Metabolic Activation: NONE, Method: PREINCUBATION
[5] = Test System: AMES SALMONELLA TYPHIMURIUM, Strain/Indicator: TA100, Metabolic Activation: NONE, Method: STANDARD PLATE
[6] = Test System: AMES SALMONELLA TYPHIMURIUM, Strain/Indicator: TA100, Metabolic Activation: RAT, LIVER, S-9, AROCLOR 1254, Method: STANDARD PLATE
[7] = Test System: AMES SALMONELLA TYPHIMURIUM, Strain/Indicator: TA1535, Metabolic Activation: NONE, Method: PREINCUBATION

CCCCOCCOCCO
mutagenic call (Test System: AMES SALMONELLA TYPHIMURIUM, Strain/Indicator: TA97, Metabolic Activation: HAMSTER, LIVER, S-9, AROCLOR 1254 (10 OR 30%), Method: PREINCUBATION): inactive; negative | mutagenic call (Test System: AMES SALMONELLA TYPHIMURIUM, Strain/Indicator: TA97, Metabolic Activation: NONE, Method: PREINCUBATION): inactive; negative | mutagenic call (Test System: AMES SALMONELLA TYPHIMURIUM, Strain/Indicator: TA97, Metabolic Activation: RAT, LIVER, S-9, AROCLOR 1254 (10 OR 30%), Method: PREINCUBATION): inactive; negative | mutagenic call (Test System: AMES SALMONELLA TYPHIMURIUM, Strain/Indicator: TA98, Metabolic Activation: HAMSTER, LIVER, S-9, AROCLOR 1254 (10 OR 30%), Method: PREINCUBATION): inactive; negative | mutagenic call [1]: inactive; negative | mutagenic call [2]: inactive; negative | mutagenic call (Test System: AMES SALMONELLA TYPHIMURIUM, Strain/Indicator: TA98, Metabolic Activation: RAT, LIVER, S-9, AROCLOR 1254 (10 OR 30%), Method: PREINCUBATION): inactive; negative | mutagenic call [3]: inactive; negative | mutagenic call (Test System: AMES SALMONELLA TYPHIMURIUM, Strain/Indicator: TA100, Metabolic Activation: HAMSTER, LIVER, S-9, AROCLOR 1254 (10 OR 30%), Method: PREINCUBATION): inactive; negative | mutagenic call [4]: inactive; negative | mutagenic call [5]: inactive; negative | mutagenic call (Test System: AMES SALMONELLA TYPHIMURIUM, Strain/Indicator: TA100, Metabolic Activation: RAT, LIVER, S-9, AROCLOR 1254 (10 OR 30%), Method: PREINCUBATION): inactive; negative | mutagenic call [6]: inactive; negative | mutagenic call (Test System: AMES SALMONELLA TYPHIMURIUM, Strain/Indicator: TA1535, Metabolic Activation: HAMSTER, LIVER, S-9, AROCLOR 1254 (10 OR 30%), Method: PREINCUBATION): inactive; negative | mutagenic call [7]: inactive; negative | mutagenic call (Test System: AMES SALMONELLA TYPHIMURIUM, Strain/Indicator: TA1535, Metabolic Activation: NONE, Method: STANDARD PLATE): inactive; negative | mutagenic call (Test System: AMES SALMONELLA TYPHIMURIUM, Strain/Indicator: TA1535, Metabolic Activation: RAT, LIVER, S-9, AROCLOR 1254 (10 OR 30%), Method: PREINCUBATION): inactive; negative | mutagenic call (Test System: AMES SALMONELLA TYPHIMURIUM, Strain/Indicator: TA1535, Metabolic Activation: RAT, LIVER, S-9, AROCLOR 1254, Method: STANDARD PLATE): inactive; negative | mutagenic call (Test System: AMES SALMONELLA TYPHIMURIUM, Strain/Indicator: TA1537, Metabolic Activation: NONE, Method: STANDARD PLATE): inactive; negative | mutagenic call (Test System: AMES SALMONELLA TYPHIMURIUM, Strain/Indicator: TA1537, Metabolic Activation: RAT, LIVER, S-9, AROCLOR 1254, Method: STANDARD PLATE): inactive; negative | mutagenic call (Test System: AMES SALMONELLA TYPHIMURIUM, Strain/Indicator: TA1538, Metabolic Activation: NONE, Method: STANDARD PLATE): inactive; negative | mutagenic call (Test System: AMES SALMONELLA TYPHIMURIUM, Strain/Indicator: TA1538, Metabolic Activation: RAT, LIVER, S-9, AROCLOR 1254, Method: STANDARD PLATE): inactive; negative | mutagenic call (Test System: CHINESE HAMSTER OVARY, Strain/Indicator: CHO-K1-BH4 (HGPRT)/6-THIOGUANINE, Metabolic Activation: NONE): inactive; negative | mutagenic call (Test System: CHINESE HAMSTER OVARY, Strain/Indicator: CHO-K1-BH4 (HGPRT)/THIOGUANINE, Metabolic Activation: RAT, LIVER, S-9, AROCLOR 1254): inactive; negative | mutagenic call (Test System: MOUSE LYMPHOMA, Strain/Indicator: L5178Y (TK+/TK-), Metabolic Activation: NONE, Method: SUSPENSION/PLATE): active; positive | mutagenic call (Test System: MOUSE LYMPHOMA, Strain/Indicator: L5178Y (TK+/TK-), Metabolic Activation: RAT, LIVER, S-9, AROCLOR 1254, Method: SUSPENSION/PLATE): inactive; negative | mutagenic call (Test System: UDS RAT HEPATOCYTES, Strain/Indicator: THY INCORP, Metabolic Activation: NONE, Method: AUTORADIOGRAPHY): inactive; negative

CCCCOC(=O)c1ccccc1C(=O)OC1CCCCC1
mutagenic call (Test System: AMES SALMONELLA TYPHIMURIUM, Strain/Indicator: TA98, Metabolic Activation: HAMSTER, LIVER, S-9, AROCLOR 1254 (10%), Method: PREINCUBATION): inactive; negative | mutagenic call [1]: inactive; negative | mutagenic call (Test System: AMES SALMONELLA TYPHIMURIUM, Strain/Indicator: TA98, Metabolic Activation: RAT, LIVER, S-9, AROCLOR 1254 (10%), Method: PREINCUBATION): inactive; negative | mutagenic call (Test System: AMES SALMONELLA TYPHIMURIUM, Strain/Indicator: TA100, Metabolic Activation: HAMSTER, LIVER, S-9, AROCLOR 1254 (10%), Method: PREINCUBATION): inactive; negative | mutagenic call [4]: inactive; negative | mutagenic call (Test System: AMES SALMONELLA TYPHIMURIUM, Strain/Indicator: TA100, Metabolic Activation: RAT, LIVER, S-9, AROCLOR 1254 (10%), Method: PREINCUBATION): inactive; negative | mutagenic call (Test System: AMES SALMONELLA TYPHIMURIUM, Strain/Indicator: TA1535, Metabolic Activation: HAMSTER, LIVER, S-9, AROCLOR 1254 (10%), Method: PREINCUBATION): inactive; negative | mutagenic call [7]: inactive; negative | mutagenic call (Test System: AMES SALMONELLA TYPHIMURIUM, Strain/Indicator: TA1535, Metabolic Activation: RAT, LIVER, S-9, AROCLOR 1254 (10%), Method: PREINCUBATION): inactive; negative | mutagenic call (Test System: AMES SALMONELLA TYPHIMURIUM, Strain/Indicator: TA1537, Metabolic Activation: HAMSTER, LIVER, S-9, AROCLOR 1254 (10%), Method: PREINCUBATION): inactive; negative | mutagenic call (Test System: AMES SALMONELLA TYPHIMURIUM, Strain/Indicator: TA1537, Metabolic Activation: NONE, Method: PREINCUBATION): inactive; negative | mutagenic call (Test System: AMES SALMONELLA TYPHIMURIUM, Strain/Indicator: TA1537, Metabolic Activation: RAT, LIVER, S-9, AROCLOR 1254 (10%), Method: PREINCUBATION): inactive; negative

CCOP(=S)(OCC)SCn1c(=O)oc2cc(Cl)ccc21
mutagenic call (Test System: AMES SALMONELLA TYPHIMURIUM, Strain/Indicator: TA97A, Metabolic Activation: NONE, Method: STANDARD PLATE): inactive; negative | mutagenic call (Test System: AMES SALMONELLA TYPHIMURIUM, Strain/Indicator: TA97A, Metabolic Activation: RAT, CECAL CELL FREE EXTRACT, Method: STANDARD PLATE): inactive; negative | mutagenic call (Test System: AMES SALMONELLA TYPHIMURIUM, Strain/Indicator: TA97A, Metabolic Activation: RAT, LIVER, S-9, AROCLOR 1254, Method: STANDARD PLATE): inactive; negative | mutagenic call [2]: inactive; negative | mutagenic call (Test System: AMES SALMONELLA TYPHIMURIUM, Strain/Indicator: TA98, Metabolic Activation: RAT, CECAL CELL FREE EXTRACT, Method: STANDARD PLATE): inactive; negative | mutagenic call [3]: inactive; negative | mutagenic call [5]: inactive; negative | mutagenic call (Test System: AMES SALMONELLA TYPHIMURIUM, Strain/Indicator: TA100, Metabolic Activation: RAT, CECAL CELL FREE EXTRACT, Method: STANDARD PLATE): inactive; negative | mutagenic call [6]: inactive; negative
